IC50 data for 6 compounds are collected here from ChEMBL document CHEMBL5727515, “5-[3-[piperzin-1-yl]-3-oxo-propyl]-imidazolidine-2,4-dione derivatives as ADAMTS 4 and 5 inhibitors for treating E.G. osteoarthritis” (2020).

The target in test [1] is T1, A disintegrin and metalloproteinase with thrombospondin motifs 5 (Homo sapiens, UniProt Q9UNA0).
T1 sequence (Q9UNA0 whole entry): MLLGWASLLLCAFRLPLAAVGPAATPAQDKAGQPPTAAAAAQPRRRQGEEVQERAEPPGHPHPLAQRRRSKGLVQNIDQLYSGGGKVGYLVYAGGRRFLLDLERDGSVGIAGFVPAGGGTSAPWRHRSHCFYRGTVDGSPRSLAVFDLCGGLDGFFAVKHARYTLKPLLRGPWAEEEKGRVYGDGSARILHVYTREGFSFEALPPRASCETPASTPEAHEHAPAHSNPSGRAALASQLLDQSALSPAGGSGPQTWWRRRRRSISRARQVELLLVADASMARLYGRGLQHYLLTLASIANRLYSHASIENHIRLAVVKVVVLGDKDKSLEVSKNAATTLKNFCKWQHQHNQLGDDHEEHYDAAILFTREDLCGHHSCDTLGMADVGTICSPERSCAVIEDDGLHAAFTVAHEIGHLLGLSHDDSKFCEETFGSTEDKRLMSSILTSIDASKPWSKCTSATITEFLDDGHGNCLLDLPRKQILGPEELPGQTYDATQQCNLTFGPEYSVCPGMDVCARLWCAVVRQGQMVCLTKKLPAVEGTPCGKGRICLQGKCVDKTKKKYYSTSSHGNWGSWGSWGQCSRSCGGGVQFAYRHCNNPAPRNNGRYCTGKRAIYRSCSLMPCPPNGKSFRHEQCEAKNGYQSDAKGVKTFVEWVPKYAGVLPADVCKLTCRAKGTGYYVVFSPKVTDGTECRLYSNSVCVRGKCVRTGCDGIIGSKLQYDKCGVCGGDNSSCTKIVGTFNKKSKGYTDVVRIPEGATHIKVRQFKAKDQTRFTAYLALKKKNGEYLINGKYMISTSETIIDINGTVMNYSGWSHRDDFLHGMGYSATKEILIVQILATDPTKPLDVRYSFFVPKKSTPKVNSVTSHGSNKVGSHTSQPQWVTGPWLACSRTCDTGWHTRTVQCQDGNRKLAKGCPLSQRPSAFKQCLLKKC
Nature of the test: hADAMTS-5 assay: The basis for the assay is the cleavage of the substrate TBIS-1 (5 FAM-TEGEARGSVILLK (5TAMRA)K-NH2) (SEQ ID NO: 2) by human ADAMTS-5.For the dose response (10 point), 4 μL of a dilution series of compound (2 mM highest concentration, 1/5 dilution in DMSO further diluted 1 in 10 in water, corresponding to a final highest concentration of 20 μM), is transferred to 384 well Fluotrac ….

Test [2] addresses Disintegrin and metalloproteinase domain-containing protein 17 (Homo sapiens, UniProt P78536). Nature of the test: hTACE assay: The basis for the assay is the cleavage of the substrate 5FAM-LAQAVRSSSRK-5TAMRA (SEQ ID No 3) (Anaspec, custom 34891) by human TACE (R&D SYSTEMS INC., Cat#930-ADB).For the dose response (10 point), 4 μL of a dilution series of compound (2 mM highest concentration, 1/5 dilution in DMSO further diluted 1 in 10 in water, corresponding to a final highest concentration of 20 μM), is ….

The target in test [3] is Collagenase 3 (Homo sapiens, UniProt P45452). Nature of the test: Human MMP13 is preactivated by incubated the enzyme in the same buffer complemented with 1 mM freshly prepared p-Aminophenylmercuric acetate (AMPA) for 1 h at 37° C.The reaction is initiated by adding to the assay plate 390 MMP FRET Substrate I (10 μL, 2.5 μM) in the same buffer.Finally, the fluorescence is read on the Envision (Perkin Elmer) after an incubation of 45 min at room temperature (Excitation 485 nm, Emission 530).

In test [4] the target is Matrix metalloproteinase-14 (Homo sapiens, UniProt P50281). Nature of the test: hMMP14 assay: The basis for the assay is the cleavage of the substrate 390 MMP FRET Substrate I (Anaspec Cat# AS-27076) by human MMP14 (Biomol, Cat#SE-259).For the dose response (10 point), 4 μL of a dilution series of compound 2 mM highest concentration, 1/5 dilution in DMSO further diluted 1 in 10 in water, corresponding to a final highest concentration of 20 μM), is transferred to 384 well ….

Disintegrin and metalloproteinase domain-containing protein 17, sequence (P78536 whole entry, the tested form may be a part): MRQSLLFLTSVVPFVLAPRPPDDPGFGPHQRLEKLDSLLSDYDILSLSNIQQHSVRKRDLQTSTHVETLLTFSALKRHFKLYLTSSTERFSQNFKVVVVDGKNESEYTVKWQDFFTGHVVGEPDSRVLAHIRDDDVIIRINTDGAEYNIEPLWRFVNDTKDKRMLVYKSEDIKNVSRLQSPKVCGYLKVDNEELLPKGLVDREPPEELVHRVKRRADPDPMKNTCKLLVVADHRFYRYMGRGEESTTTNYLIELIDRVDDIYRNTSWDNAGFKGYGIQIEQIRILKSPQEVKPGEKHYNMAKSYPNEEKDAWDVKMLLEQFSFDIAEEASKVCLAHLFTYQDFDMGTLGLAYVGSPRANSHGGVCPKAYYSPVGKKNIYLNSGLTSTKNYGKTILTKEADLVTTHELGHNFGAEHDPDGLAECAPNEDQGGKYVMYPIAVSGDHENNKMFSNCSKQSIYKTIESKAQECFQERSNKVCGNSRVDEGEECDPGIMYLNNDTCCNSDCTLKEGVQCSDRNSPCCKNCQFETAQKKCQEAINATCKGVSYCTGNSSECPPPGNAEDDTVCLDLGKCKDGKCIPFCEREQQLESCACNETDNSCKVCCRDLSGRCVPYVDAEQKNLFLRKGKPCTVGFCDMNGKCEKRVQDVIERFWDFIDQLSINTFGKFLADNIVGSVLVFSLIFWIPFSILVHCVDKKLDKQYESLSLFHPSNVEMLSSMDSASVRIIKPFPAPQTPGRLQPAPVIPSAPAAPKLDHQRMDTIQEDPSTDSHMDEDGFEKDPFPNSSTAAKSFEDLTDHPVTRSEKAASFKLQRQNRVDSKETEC

As a reminder, the IC50 is the concentration at which inhibition is half-maximal. Read a low IC50 as greater potency in that assay. In the case of `COc1cc(C2CCN(C(=O)CCC3(C)NC(=O)NC3=O)CC2)c(C)cc1Cl` (stereo not drawn), the IC50 in test [1], in test [2] and in test [3] was more than 100 nM each time.
Compound `COc1cc(C2CCN(C(=O)CC[C@H]3NC(=O)NC3=O)CC2)cc(Cl)c1Cl` yielded an IC50 in test [3] of more than 100 nM.
Turning to `COc1c(Cl)cc(Cl)cc1C1CCN(C(=O)CC[C@H]2NC(=O)NC2=O)CC1`, the IC50 in test [1], in test [2] and in test [3] was more than 100 nM throughout.
Compound `COc1cc(C2CCN(C(=O)CC[C@@]3(C)NC(=O)NC3=O)CC2)cc(Cl)c1Cl` displayed a half-inhibitory concentration (IC50) in test [3] of more than 100 nM.
As to `COc1cc(C2CCN(C(=O)CC[C@H]3NC(=O)NC3=O)CC2)cc(OC)c1F`, the 50% inhibitory concentration (IC50) in test [1], in test [4] and in test [3] was more than 100 nM in each case.
With `COc1c(Cl)cc(Cl)cc1C1CCN(C(=O)CC[C@@]2(C)NC(=O)NC2=O)CC1`, the IC50 in test [1] and in test [3] was more than 100 nM in each case.
